Data from the supplement of paper PMC13380429.

What was measured:
Conditions in all cases: 72 h
U2OS [1] = experiment: cell viability relative to DMSO; higher = less toxic
Caco-2 [2] = experiment: as above
HepG2 [3] = experiment: as above
Calu-3 [4] = experiment: as above
Vero E6 [5] = experiment: as above
U2OS [6] = experiment: drug sensitivity score (DSS) for viability; higher = more toxic; extreme values may be limits of the assay
Caco-2 [7] = experiment: as above
HepG2 [8] = experiment: as above
Calu-3 [9] = experiment: as above
Vero E6 [10] = experiment: as above
U2OS [11] = experiment: relative viability EC50 (midpoint between 100% and the lowest measured viability); higher = less toxic
Caco-2 [12] = experiment: as above
HepG2 [13] = experiment: as above
Calu-3 [14] = experiment: as above
Vero E6 [15] = experiment: as above

SMILES	cell viability (U2OS [1]; 1 nM) [%]	cell viability (U2OS [1]; 10 nM) [%]	cell viability (U2OS [1]; 100 nM) [%]	cell viability (U2OS [1]; 1000 nM) [%]	cell viability (U2OS [1]; 10000 nM) [%]	cell viability (Caco-2 [2]; 1 nM) [%]	cell viability (Caco-2 [2]; 10 nM) [%]	cell viability (Caco-2 [2]; 100 nM) [%]	cell viability (Caco-2 [2]; 1000 nM) [%]	cell viability (Caco-2 [2]; 10000 nM) [%]	cell viability (HepG2 [3]; 1 nM) [%]	cell viability (HepG2 [3]; 10 nM) [%]	cell viability (HepG2 [3]; 100 nM) [%]	cell viability (HepG2 [3]; 1000 nM) [%]	cell viability (HepG2 [3]; 10000 nM) [%]	cell viability (Calu-3 [4]; 1 nM) [%]	cell viability (Calu-3 [4]; 10 nM) [%]	cell viability (Calu-3 [4]; 100 nM) [%]	cell viability (Calu-3 [4]; 1000 nM) [%]	cell viability (Calu-3 [4]; 10000 nM) [%]	cell viability (Vero E6 [5]; 1 nM) [%]	cell viability (Vero E6 [5]; 10 nM) [%]	cell viability (Vero E6 [5]; 100 nM) [%]	cell viability (Vero E6 [5]; 1000 nM) [%]	cell viability (Vero E6 [5]; 10000 nM) [%]	drug sensitivity score (U2OS [6])	drug sensitivity score (Caco-2 [7])	drug sensitivity score (HepG2 [8])	drug sensitivity score (Calu-3 [9])	drug sensitivity score (Vero E6 [10])	relative viability EC50 (U2OS [11]) [µM]	relative viability EC50 (Caco-2 [12]) [µM]	relative viability EC50 (HepG2 [13]) [µM]	relative viability EC50 (Calu-3 [14]) [µM]	relative viability EC50 (Vero E6 [15]) [µM]
CCCCc1ccc(O)cc1O [rucinol]	101	99	99.8	104	96.7	102	95.3	83.5	114	106	110	87.5	107	92.5	81.5	101	98	83.4	102	83.8	111	84.9	106	91.8	103	0	0	1.3	0.1	0	> 10	> 10	> 10	> 10	> 10
OC[C@H]1O[C@@H](OCCc2ccc(O)cc2)[C@H](O)[C@@H](O)[C@@H]1O [salidroside]	102	93.9	96	103	101	103	92.2	92.3	106	104	91.4	97	109	87	104	96	106	102	87.2	113	95.5	94.8	93.2	99.8	107	0	0	0	0	0	> 10	> 10	> 10	> 10	> 10
C[C@H](Cc1cc2c(c(C(N)=O)c1)N(CCCO)CC2)NCCOc1ccccc1OCC(F)(F)F [silodosin]	101	93.5	98.9	95.6	97.6	91.6	93.1	106	92	88.7	95	97.7	103	102	99.9	96	87.2	97	101	93.6	93.9	102	97.1	101	108	0	0	0	0	0	> 10	> 10	> 10	> 10	> 10
CCOc1ccc(Cc2cc([C@@H]3O[C@H](SC)[C@@H](O)[C@H](O)[C@H]3O)ccc2Cl)cc1 [sotagliflozin]	97.7	95	100	97.6	95.4	98.3	102	100	92.5	91.1	90.3	101	98.4	101	91.8	91.4	94.1	112	97.7	99.8	94.6	97.2	95.4	95.8	102	0	0	0	0	0	> 10	> 10	> 10	> 10	> 10
CC(=O)N(c1onc(C)c1C)S(=O)(=O)c1ccc(N)cc1 [sulfisoxazole-acetyl]	101	97.5	101	97.7	98.7	109	106	110	102	90.9	96.9	105	114	103	97.4	96.7	102	93.6	102	102	104	107	103	96.9	98.8	0	0	0	0	0	> 10	> 10	> 10	> 10	> 10
CC1=C(CC(=O)O)c2cc(F)ccc2/C1=C\c1ccc([S+](C)[O-])cc1 (stereo not given) [sulindac]	101	99.2	97.4	101	97.4	96	100	103	94.9	85.1	117	90.2	93.3	84	108	102	113	96.5	98	101	105	102	103	92.9	94.4	0	0.6	0	0	0	> 10	> 10	> 10	> 10	> 10
